Test results as given in patent publication US8058431B2, “Fluorescent double stranded DNA binding dyes” (Roche Diagnostics Operations, Inc., priority 2006, dated 2011).

Experiments:
[1] = system: genomic DNA; assay: Light stability: fluorescence of a mixture of dye and genomic DNA during continuous light exposure; assay type: physicochemical; conditions: for fluorescence during continuous light exposure: dye + genomic DNA
Protocol: The light stability of R27, which is representative for the nine described dyes, was compared to established dyes already used for such applications. The fluorescence of a mixture of the respective dye and genomic DNA was measured during continuous light exposure.

[2] = Bleaching of dye solution during a typical PCR protocol on a real-time PCR instrument; assay type: physicochemical; conditions: excitation for fluorescence measurement and repeated temperature changes between 55 and 95° C., LIGHTCYCLER 480

| SMILES | fluorescence during continuous light exposure ([1]; light exposure 0 min) [%] | fluorescence during continuous light exposure ([1]; light exposure 10 min) [%] | fluorescence during continuous light exposure ([1]; light exposure 30 min) [%] | fluorescence during continuous light exposure ([1]; light exposure 60 min) [%] | fluorescence during continuous light exposure ([1]; light exposure 180 min) [%] | fluorescence during continuous light exposure ([1]; light exposure 300 min) [%] | light stability compared to established dyes ([1]; versus SYBR Green I and LC Green Plus) | bleaching of the dye [2] |
| --- | --- | --- | --- | --- | --- | --- | --- | --- |
| COc1cc2c(cc1OC)N(C)C(CCCC[N+](C)(C)C)=N/C2=C\c1sc2ccccc2[n+]1C.[I-].[I-] [R 27] | 100 | 99 | 98 | 99 | 97 | 96 | distinctly higher | no recognizable bleaching |
| CCCN(CCCN(C)C)c1cc(C=C2Sc3ccccc3N2C)c2ccccc2[n+]1-c1ccccc1 [SYBR Green I, [2-[N-(-3-dimethylaminopropyl)-N-propylamino]-4-[2,3-dihydro-3-methyl-(benzo-1,3-thiazol-2-yl)-methylidene]-1-phenyl-quinolinium]+, reference compound] | 100 | 87 | 77 | 70 | 40 | 24 |  |  |
